# Like-named read-outs stand apart in the source and are kept apart here.
# What was measured:
# [1] = target: T1, BTK (Homo sapiens, UniProt Q06187); assay: Inhibitory activity against BTK, ADP-Glo Kinase system (Promega); type: biochemical
# T1 construct: purchased Signalchem B10-10H
# Experimental: (§1) Inhibitory activities against BTK and ITK were measured for the compounds prepared in the above Examples as follows.
# (§2) The inhibitory activities against BTK and ITK were evaluated using 'ADP-Glo™ Kinase system' (Promega Corporation). In the case of this evaluation method, activation was measured by quantifying the amount of ADP produced during the kinase reaction, which was utilized to measure the inhibitory activities against BTK and ITK.
# (§3) Specifically, the inhibitory activities against BTK and ITK were measured using BTK kinase (Signalchem, B10-10H), ITK kinase (Signalchem, I13-11G-10), and ADP-Glo kinase assay kit (Promega, V9102). Recombinant purified human BTK and ITK were diluted with 1 x kinase reaction buffer (40 mM Tris-Cl, pH 7.5, 20 mM MgCl2, 0.1 mg/mL BSA, 2 mM MnCl2 and 50 uM DTT) and added to a 96 well plate (ITK: final concentration of 4 ng per reaction/BTK: final concentration of 10 ng per reaction). The compounds prepared in the previous Examples were treated so as to be finally a 1% DMSO aqueous solution, and a substrate cocktail containing ATP (1mM or Km ATP (BTK: 10 uM /ITK: 25uM)) and 0.2 ug/ul of Poly (Glu4,Tyr1) peptide (BTK and ITK final concentration) in the total 25 uL reactants was added to a 96-well plate to initiate enzymatic reaction. After incubation (30°C) for 1 hour, equivalent volume (25 uL per reaction) of ADP Glo was added, and incubated (30°C) for 40 minutes at room temperature. Then, a kinase detection reagent (45 uL per reaction) was added, and incubated (30°C) for 30 minutes at room temperature. The kinase activity was measured by chemiluminescence according to the instructions of ADP Glo kinase assay kit, and the inhibitory activity of the compounds according to the present disclosure was calculated. For the analysis of the results of each compound, Microsoft Excel was used, and IC50 values were calculated by GraphPad Prism software.
# [2] = target: T2, ITK (Homo sapiens, UniProt Q08881); assay: Inhibitory activity against ITK, ADP-Glo Kinase system (Promega); type: biochemical
# T2 construct: purchased Signalchem I13-11G-10
# T2 sequence (Q08881 1-620): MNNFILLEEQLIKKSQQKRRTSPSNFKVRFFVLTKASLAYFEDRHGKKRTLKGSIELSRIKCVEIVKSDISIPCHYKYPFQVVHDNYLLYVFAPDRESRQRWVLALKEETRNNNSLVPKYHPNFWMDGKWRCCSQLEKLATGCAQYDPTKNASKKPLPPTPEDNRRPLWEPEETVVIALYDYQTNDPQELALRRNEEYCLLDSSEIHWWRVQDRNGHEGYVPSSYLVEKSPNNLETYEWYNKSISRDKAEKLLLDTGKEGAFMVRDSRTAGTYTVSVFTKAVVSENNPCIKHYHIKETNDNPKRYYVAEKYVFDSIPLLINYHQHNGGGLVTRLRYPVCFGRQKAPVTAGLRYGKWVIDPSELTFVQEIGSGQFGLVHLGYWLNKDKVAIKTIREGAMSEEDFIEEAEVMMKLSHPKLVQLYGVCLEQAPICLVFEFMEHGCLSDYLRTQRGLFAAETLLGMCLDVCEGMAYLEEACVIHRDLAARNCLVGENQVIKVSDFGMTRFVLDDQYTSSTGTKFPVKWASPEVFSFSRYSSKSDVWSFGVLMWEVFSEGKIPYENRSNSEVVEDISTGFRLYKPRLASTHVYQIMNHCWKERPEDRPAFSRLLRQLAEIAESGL
# Experimental: as §1, §2, §3
# [3] = Km ATP (BTK: 10 uM), read-out: BTK IC50(nM) Km ATP
# [4] = Km ATP (ITK: 25uM), read-out: ITK IC50(nM) Km ATP
# [5] = 1mM ATP, read-out: BTK IC50(nM) 1mM ATP
# [6] = 1mM ATP, read-out: ITK IC50(nM) 1mM ATP
# T1 sequence (Q06187 whole entry): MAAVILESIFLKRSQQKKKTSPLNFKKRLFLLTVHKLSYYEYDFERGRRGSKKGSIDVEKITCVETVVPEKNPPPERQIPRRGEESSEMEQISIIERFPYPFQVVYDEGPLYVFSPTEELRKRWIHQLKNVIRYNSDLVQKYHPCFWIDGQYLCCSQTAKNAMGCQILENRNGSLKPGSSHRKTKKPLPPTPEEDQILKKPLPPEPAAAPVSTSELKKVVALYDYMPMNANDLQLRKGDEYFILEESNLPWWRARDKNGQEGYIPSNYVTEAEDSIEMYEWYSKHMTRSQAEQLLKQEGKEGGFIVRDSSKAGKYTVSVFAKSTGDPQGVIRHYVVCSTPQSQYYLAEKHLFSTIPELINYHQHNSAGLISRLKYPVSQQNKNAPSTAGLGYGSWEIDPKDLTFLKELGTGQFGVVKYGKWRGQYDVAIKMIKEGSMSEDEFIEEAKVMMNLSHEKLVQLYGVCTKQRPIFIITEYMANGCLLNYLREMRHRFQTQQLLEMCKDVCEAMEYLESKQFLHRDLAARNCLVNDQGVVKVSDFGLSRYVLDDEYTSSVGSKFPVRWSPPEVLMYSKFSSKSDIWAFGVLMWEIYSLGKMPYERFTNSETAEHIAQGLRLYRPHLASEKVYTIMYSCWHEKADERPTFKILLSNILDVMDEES
SMILES,"IC50 [1, 3] [nM]","IC50 [2, 4] [nM]","IC50 [1, 5] [nM]","IC50 [2, 6] [nM]"
"C=CC(=O)N1CC[C@H](Oc2nc(Nc3ncc(C)s3)cc3c2ccn3Cc2ccccc2)C1 [Example 121, (S)-1-(3-((1-benzyl-6-((5-methylthiazol-2-yl)amino)-1H-pyrrolo[3,2-c]pyridin-4-yl)oxy)pyrrolidin-1-yl)prop-2-en-1-one]",≤ 20,≤ 20,,
"C=CC(=O)N1CCCC12CCC(Oc1nc(Nc3ncc(C)s3)cc3c1ccn3CC(C)C)C2 (stereo not shown) [Example 201, 1-(7-((1-isobutyl-6-((5-methylthiazol-2-yl)amino)-1H-pyrrolo[3,2-c]pyridin-4-yl)oxy)-1-azaspiro[4.4]nonan-1-yl)prop-2-en-1-one]",,,100 to 500,> 500
"C=CC(=O)N1CC[C@H](Oc2nc(Nc3ccn(C)n3)cc3c2ccn3C(C)C)C1 [Example 193, (S)-1-(3-((1-isopropyl-6-((1-methyl-1H-pyrazol-3-yl)amino)-1H-pyrrolo[3,2-c]pyridin-4-yl)oxy)pyrrolidin-1-yl)prop-2-en-1-one]",,,> 500,> 500
"C=CC(=O)N1CC=C(c2nc(Nc3ncc(C)s3)cc3c2ccn3CC(F)F)C(C)C1 (stereo not shown) [Example 25, 1-(4-(1-(2,2-difluoroethyl)-6-((5-methylthiazol-2-yl)amino)-1H-pyrrolo[3,2-c]pyridin-4-yl)-3-methyl-3,6-dihydropyridin-1(2H)-yl)prop-2-en-1-one]",,,> 500,> 500
"C=CC(=O)N1CC[C@@H](Oc2nc(Nc3ncc(C)s3)cc3c2ccn3CC(C)C)C1 (stereo in doubt) [Example 82, (R)-1-(3-((1-isobutyl-6-((5-methylthiazol-2-yl)amino)-1H-pyrrolo[3,2-c]pyridin-4-yl)oxy)pyrrolidin-1-yl)prop-2-en-1-one]",,,> 500,> 500
"C=CC(=O)N1C[C@@H](Oc2nc(Nc3ncc(C)s3)cc3c2ccn3C2CCCC2)C[C@@H]1C [Example 164, 1-((2S,4S)-4-((1-cyclopentyl-6-((5-methylthiazol-2-yl)amino)-1H-pyrrolo[3,2-c]pyridin-4-yl)oxy)-2-methylpyrrolidin-1-yl)prop-2-en-1-one]",,,20 to 100,100 to 500
"C=CC(=O)N1C[C@H](Oc2nc(Nc3ncc(C)s3)cc3c2ccn3CC(C)C)[C@@H](F)C1 [Example 134, 1-((3S,4S)-3-fluoro-4-((1-isobutyl-6-((5-methylthiazol-2-yl)amino)-1H-pyrrolo[3,2-c]pyridin-4-yl)oxy)pyrrolidin-1-yl)prop-2-en-1-one]",,,> 500,> 500
"C=CC(=O)N1CC=C(c2nc(Nc3ncc(C)s3)cc3c2ccn3C(F)F)CC1 [Example 21, 1-(4-(1-(difluoromethyl)-6-((5-methylthiazol-2-yl)amino)-1H-pyrrolo[3,2-c]pyridin-4-yl)-3,6-dihydropyridin-1(2H)-yl)prop-2-en-1-one]",≤ 20,≤ 20,,
"C=CC(=O)N1CC=C(c2nc(Nc3ncc(C)s3)cc3c2ccn3C2CC2(F)F)CC1 (stereo not shown) [Example 20, 1-(4-(1-(2,2-difluorocyclopropyl)-6-((5-methylthiazol-2-yl)amino)-1H-pyrrolo[3,2-c]pyridin-4-yl)-3,6-dihydropyridin-1(2H)-yl)prop-2-en-1-one]",≤ 20,≤ 20,,

# Next, values leading:
"IC50 [1, 3] [nM]","IC50 [2, 4] [nM]","IC50 [1, 5] [nM]","IC50 [2, 6] [nM]",SMILES
≤ 20,≤ 20,≤ 20,≤ 20,"C=CC(=O)N1CC[C@H](Oc2nc(Nc3ncc(C)s3)cc3c2ccn3C(C)C)C1 [Example 79, (S)-1-(3-((1-isopropyl-6-((5-methylthiazol-2-yl)amino)-1H-pyrrolo[3,2-c]pyridin-4-yl)oxy)pyrrolidin-1-yl)prop-2-en-1-one]"
,,≤ 20,≤ 20,"C=CC(=O)N1CC[C@@H]1COc1nc(Nc2ncc(C)s2)cc2c1ccn2C(C)C [Example 90, (R)-1-(2-(((1-isopropyl-6-((5-methylthiazol-2-yl)amino)-1H-pyrrolo[3,2-c]pyridin-4-yl)oxy)methyl)azetidin-1-yl)prop-2-en-1-one]"
,,≤ 20,≤ 20,"C=CC(=O)N1C[C@@H](F)[C@H](Oc2nc(Nc3ncc(C)s3)cc3c2ccn3CC(C)C)C1 [Example 106, 1-((3R,4R)-3-fluoro-4-((1-isobutyl-6-((5-methylthiazol-2-yl)amino)-1H-pyrrolo[3,2-c]pyridin-4-yl)oxy)pyrrolidin-1-yl)prop-2-en-1-one]"
,,≤ 20,≤ 20,"C=CC(=O)N1C[C@@H](Oc2nc(Nc3ncc(C)s3)cc3c2ccn3CC(F)(F)F)C[C@H]1C [Example 212, 1-((2R,4S)-2-methyl-4-((6-((5-methylthiazol-2-yl)amino)-1-(2,2,2-trifluoroethyl)-1H-pyrrolo[3,2-c]pyridin-4-yl)oxy)pyrrolidin-1-yl)prop-2-en-1-one]"
,,20 to 100,20 to 100,"C=CC(=O)N1CC[C@H](Oc2nc(Nc3cc(C)ncn3)cc3c2ccn3CC(C)C)C1 [Example 104, (S)-1-(3-((1-isobutyl-6-((6-methylpyrimidin-4-yl)amino)-1H-pyrrolo[3,2-c]pyridin-4-yl)oxy)pyrrolidin-1-yl)prop-2-en-1-one]"
,,≤ 20,≤ 20,"C=CC(=O)N1CC[C@H](Oc2nc(Nc3ncc(C)s3)cc3c2ccn3[C@@H](C)CC)C1 [Example 111, 1-((S)-3-((1-((S)-sec-butyl)-6-((5-methylthiazol-2-yl)amino)-1H-pyrrolo[3,2-c]pyridin-4-yl)oxy)pyrrolidin-1-yl)prop-2-en-1-one]"
,,≤ 20,≤ 20,"C=CC(=O)N1C2C=C(c3nc(Nc4ncc(C)s4)cc4c3ccn4C3CCCC3)CC1CC2 (stereo not shown) [Example 33, 1-(3-(1-cyclopentyl-6-((5-methylthiazol-2-yl)amino)-1H-pyrrolo[3,2-c]pyridin-4-yl)-8-azabicyclo[3.2.1]oct-2-en-8-yl)prop-2-en-1-one]"
,,≤ 20,20 to 100,"C=CC(=O)N1CCC[C@H]1COc1nc(Nc2ncc(C)s2)cc2c1ccn2CC1CCCC1 [Example 220, (S)-1-(2-(((1-(cyclopentylmethyl)-6-((5-methylthiazol-2-yl)amino)-1H-pyrrolo[3,2-c]pyridin-4-yl)oxy)methyl)pyrrolidin-1-yl)prop-2-en-1-one]"
≤ 20,≤ 20,≤ 20,20 to 100,"C=CC(=O)N1C2C=C(c3nc(Nc4ncc(C)s4)cc4c3ccn4CC(F)F)CC1CC2 (stereo not shown) [Example 34, 1-(3-(1-(2,2-difluoroethyl)-6-((5-methylthiazol-2-yl)amino)-1H-pyrrolo[3,2-c]pyridin-4-yl)-8-azabicyclo[3.2.1]oct-2-en-8-yl)prop-2-en-1-one]"
,,≤ 20,≤ 20,"C=CC(=O)N1C[C@H](F)[C@H](Oc2nc(Nc3ncc(C)s3)cc3c2ccn3CC(C)C)C1 [Example 105, 1-((3S,4R)-3-fluoro-4-((1-isobutyl-6-((5-methylthiazol-2-yl)amino)-1H-pyrrolo[3,2-c]pyridin-4-yl)oxy)pyrrolidin-1-yl)prop-2-en-1-one]"
,,≤ 20,≤ 20,"C=CC(=O)N1C[C@@H](Oc2nc(Nc3ncc(C)s3)cc3c2ccn3C)C[C@@H]1C [Example 185, 1-((2S,4S)-2-methyl-4-((1-methyl-6-((5-methylthiazol-2-yl)amino)-1H-pyrrolo[3,2-c]pyridin-4-yl)oxy)pyrrolidin-1-yl)prop-2-en-1-one]"
,,≤ 20,≤ 20,"C=CC(=O)N1CC[C@H](Oc2nc(Nc3ncc(C)s3)cc3c2ccn3CC(F)F)C1 [Example 206, (S)-1-(3-((1-(2,2-difluoroethyl)-6-((5-methylthiazol-2-yl)amino)-1H-pyrrolo[3,2-c]pyridin-4-yl)oxy)pyrrolidin-1-yl)prop-2-en-1-one]"
